Measured values reported in ChEMBL document CHEMBL4507260 (2021).

Key:
Conditions in all cases: Compound concentration 1000.0 nM
[1] = molecular target: Calcium-dependent protein kinase 1 (Plasmodium falciparum) (UniProt P62344)
[2] = molecular target: Serine/threonine-protein kinase RIO3 (Homo sapiens) (UniProt O14730)
[3] = molecular target: Wee1-like protein kinase (Homo sapiens) (UniProt P30291)
[4] = molecular target: Homeodomain-interacting protein kinase 3 (Homo sapiens) (UniProt Q9H422)
[5] = molecular target: Serine/threonine-protein kinase Nek11 (Homo sapiens) (UniProt Q8NG66)
[6] = molecular target: Tyrosine-protein kinase Fgr (Homo sapiens) (UniProt P09769)
[7] = molecular target: Serine/threonine-protein kinase SBK1 (Homo sapiens) (UniProt Q52WX2)
[8] = molecular target: Casein kinase I isoform epsilon (Homo sapiens) (UniProt P49674)
[9] = molecular target: Phosphatidylinositol 5-phosphate 4-kinase type-2 gamma (Homo sapiens) (UniProt Q8TBX8)
[10] = molecular target: Peripheral plasma membrane protein CASK (Homo sapiens) (UniProt O14936)
[11] = molecular target: Cyclin-dependent kinase 5 (Homo sapiens) (UniProt Q00535)
[12] = molecular target: Casein kinase I isoform gamma-3 (Homo sapiens) (UniProt Q9Y6M4)
[13] = molecular target: Serine/threonine-protein kinase DCLK2 (Homo sapiens) (UniProt Q8N568)
[14] = molecular target: Mitogen-activated protein kinase kinase kinase kinase 4 (Homo sapiens) (UniProt O95819)
[15] = molecular target: Cyclin-dependent kinase 4 (Homo sapiens) (UniProt P11802)
[16] = molecular target: Serine/threonine-protein kinase PAK 6 (Homo sapiens) (UniProt Q9NQU5)
[17] = molecular target: Cyclin-dependent kinase 3 (Homo sapiens) (UniProt Q00526)
[18] = molecular target: Tyrosine-protein kinase SYK (Homo sapiens) (UniProt P43405)
[19] = molecular target: Protein kinase C epsilon type (Homo sapiens) (UniProt Q02156)
[20] = molecular target: Serine/threonine-protein kinase Nek3 (Homo sapiens) (UniProt P51956)
[21] = molecular target: LIM domain kinase 2 (Homo sapiens) (UniProt P53671)
[22] = molecular target: Death-associated protein kinase 1 (Homo sapiens) (UniProt P53355)
[23] = molecular target: Vascular endothelial growth factor receptor 1 (Homo sapiens) (UniProt P17948)
[24] = test system: Tyrosine-protein kinase ABL1 (Homo sapiens), P00519 [F317L]
[25] = molecular target: Serine/threonine-protein kinase NIM1 (Homo sapiens) (UniProt Q8IY84)
[26] = molecular target: Serine/threonine-protein kinase WNK4 (Homo sapiens) (UniProt Q96J92)
[27] = molecular target: Cyclin-dependent kinase 8 (Homo sapiens) (UniProt P49336)
[28] = molecular target: Mitogen-activated protein kinase kinase kinase 1 (Homo sapiens) (UniProt Q13233)
[29] = molecular target: Serine/threonine-protein kinase 26 (Homo sapiens) (UniProt Q9P289)
[30] = molecular target: 5'-AMP-activated protein kinase catalytic subunit alpha-2 (Homo sapiens) (UniProt P54646)
[31] = molecular target: Serine/threonine-protein kinase Nek10 (Homo sapiens) (UniProt Q6ZWH5)
[32] = molecular target: Serine/threonine-protein kinase 32A (Homo sapiens) (UniProt Q8WU08)
[33] = test system: Phosphatidylinositol 4,5-bisphosphate 3-kinase catalytic subunit alpha isoform (Homo sapiens), P42336 [Q546K]
[34] = molecular target: Activin receptor type-2B (Homo sapiens) (UniProt Q13705)
[35] = molecular target: Epithelial discoidin domain-containing receptor 1 (Homo sapiens) (UniProt Q08345)
[36] = molecular target: Mitogen-activated protein kinase kinase kinase 7 (Homo sapiens) (UniProt O43318)
[37] = molecular target: Phosphatidylinositol 4-phosphate 3-kinase C2 domain-containing subunit beta (Homo sapiens) (UniProt O00750)
[38] = molecular target: Tyrosine-protein kinase ABL1 (Homo sapiens) (UniProt P00519)
[39] = molecular target: Phosphatidylinositol 4,5-bisphosphate 3-kinase catalytic subunit beta isoform (Homo sapiens) (UniProt P42338)
[40] = molecular target: Mitogen-activated protein kinase kinase kinase 4 (Homo sapiens) (UniProt Q9Y6R4)
[41] = molecular target: Serine/threonine-protein kinase 35 (Homo sapiens) (UniProt Q8TDR2)
[42] = molecular target: Serine/threonine-protein kinase RIO1 (Homo sapiens) (UniProt Q9BRS2)
[43] = molecular target: Aurora kinase A (Homo sapiens) (UniProt O14965)
[44] = molecular target: Phosphatidylinositol 3-kinase catalytic subunit type 3 (Homo sapiens) (UniProt Q8NEB9)
[45] = molecular target: Hepatocyte growth factor receptor (Homo sapiens) (UniProt P08581)

Measured: residual activity

Tyrosine-protein kinase Fgr (Homo sapiens), sequence (P09769 2-529 limits assumed): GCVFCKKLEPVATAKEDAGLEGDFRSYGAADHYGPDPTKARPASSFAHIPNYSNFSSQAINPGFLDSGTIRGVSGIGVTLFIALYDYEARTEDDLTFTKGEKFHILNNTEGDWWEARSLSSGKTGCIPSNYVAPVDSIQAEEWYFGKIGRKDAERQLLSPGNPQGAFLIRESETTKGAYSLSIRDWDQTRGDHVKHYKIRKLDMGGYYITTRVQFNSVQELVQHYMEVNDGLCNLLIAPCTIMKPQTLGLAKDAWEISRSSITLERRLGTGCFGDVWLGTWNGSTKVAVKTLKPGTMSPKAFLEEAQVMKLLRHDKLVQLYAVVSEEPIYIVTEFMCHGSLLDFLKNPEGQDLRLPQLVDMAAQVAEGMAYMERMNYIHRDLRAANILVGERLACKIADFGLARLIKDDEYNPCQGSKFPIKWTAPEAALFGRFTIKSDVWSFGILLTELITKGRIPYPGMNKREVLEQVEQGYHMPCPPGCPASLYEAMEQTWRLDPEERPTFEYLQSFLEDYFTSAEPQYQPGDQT
Phosphatidylinositol 3-kinase catalytic subunit type 3 (Homo sapiens), sequence (Q8NEB9 whole entry): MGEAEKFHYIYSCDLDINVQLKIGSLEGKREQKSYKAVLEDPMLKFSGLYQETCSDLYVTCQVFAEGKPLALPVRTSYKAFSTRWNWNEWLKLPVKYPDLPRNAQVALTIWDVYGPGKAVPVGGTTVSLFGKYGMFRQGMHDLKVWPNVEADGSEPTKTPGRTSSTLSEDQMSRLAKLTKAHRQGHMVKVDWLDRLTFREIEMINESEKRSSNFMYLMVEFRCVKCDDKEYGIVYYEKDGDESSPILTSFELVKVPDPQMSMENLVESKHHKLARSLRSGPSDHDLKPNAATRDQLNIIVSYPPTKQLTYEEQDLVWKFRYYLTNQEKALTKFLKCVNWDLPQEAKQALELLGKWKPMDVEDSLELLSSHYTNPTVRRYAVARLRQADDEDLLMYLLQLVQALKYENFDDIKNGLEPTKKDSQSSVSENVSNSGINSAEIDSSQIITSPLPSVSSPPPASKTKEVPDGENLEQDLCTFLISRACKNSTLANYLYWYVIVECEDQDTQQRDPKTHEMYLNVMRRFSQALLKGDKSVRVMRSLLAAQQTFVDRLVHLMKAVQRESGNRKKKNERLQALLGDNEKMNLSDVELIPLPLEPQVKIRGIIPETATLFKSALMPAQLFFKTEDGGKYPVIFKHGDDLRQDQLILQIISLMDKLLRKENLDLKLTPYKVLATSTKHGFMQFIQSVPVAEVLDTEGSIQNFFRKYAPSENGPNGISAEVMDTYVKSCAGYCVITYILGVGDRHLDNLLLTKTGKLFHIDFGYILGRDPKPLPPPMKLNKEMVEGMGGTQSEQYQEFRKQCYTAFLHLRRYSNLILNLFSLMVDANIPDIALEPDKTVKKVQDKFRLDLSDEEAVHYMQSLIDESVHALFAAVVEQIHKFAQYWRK
Serine/threonine-protein kinase PAK 6 (Homo sapiens), sequence (Q9NQU5 whole entry, looked up): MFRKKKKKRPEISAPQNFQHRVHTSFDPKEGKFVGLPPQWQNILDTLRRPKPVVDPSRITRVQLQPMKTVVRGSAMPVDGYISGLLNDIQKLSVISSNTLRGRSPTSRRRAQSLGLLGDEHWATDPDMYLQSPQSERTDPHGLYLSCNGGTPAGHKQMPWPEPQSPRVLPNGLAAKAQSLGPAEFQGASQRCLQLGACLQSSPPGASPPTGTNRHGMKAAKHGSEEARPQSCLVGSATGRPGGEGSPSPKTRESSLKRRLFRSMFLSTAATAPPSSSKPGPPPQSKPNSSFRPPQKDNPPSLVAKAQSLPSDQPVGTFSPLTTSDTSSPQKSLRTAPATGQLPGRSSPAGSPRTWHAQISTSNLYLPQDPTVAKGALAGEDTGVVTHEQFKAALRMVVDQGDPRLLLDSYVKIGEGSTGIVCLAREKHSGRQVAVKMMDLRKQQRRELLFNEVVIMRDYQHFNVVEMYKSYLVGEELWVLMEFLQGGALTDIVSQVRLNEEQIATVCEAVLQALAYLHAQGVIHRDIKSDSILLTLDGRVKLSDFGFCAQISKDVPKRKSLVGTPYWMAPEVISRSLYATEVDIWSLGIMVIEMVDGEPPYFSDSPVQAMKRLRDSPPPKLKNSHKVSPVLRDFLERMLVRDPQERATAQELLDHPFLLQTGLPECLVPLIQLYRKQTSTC
LIM domain kinase 2 (Homo sapiens), sequence (P53671 whole entry, looked up, the tested form may be a part): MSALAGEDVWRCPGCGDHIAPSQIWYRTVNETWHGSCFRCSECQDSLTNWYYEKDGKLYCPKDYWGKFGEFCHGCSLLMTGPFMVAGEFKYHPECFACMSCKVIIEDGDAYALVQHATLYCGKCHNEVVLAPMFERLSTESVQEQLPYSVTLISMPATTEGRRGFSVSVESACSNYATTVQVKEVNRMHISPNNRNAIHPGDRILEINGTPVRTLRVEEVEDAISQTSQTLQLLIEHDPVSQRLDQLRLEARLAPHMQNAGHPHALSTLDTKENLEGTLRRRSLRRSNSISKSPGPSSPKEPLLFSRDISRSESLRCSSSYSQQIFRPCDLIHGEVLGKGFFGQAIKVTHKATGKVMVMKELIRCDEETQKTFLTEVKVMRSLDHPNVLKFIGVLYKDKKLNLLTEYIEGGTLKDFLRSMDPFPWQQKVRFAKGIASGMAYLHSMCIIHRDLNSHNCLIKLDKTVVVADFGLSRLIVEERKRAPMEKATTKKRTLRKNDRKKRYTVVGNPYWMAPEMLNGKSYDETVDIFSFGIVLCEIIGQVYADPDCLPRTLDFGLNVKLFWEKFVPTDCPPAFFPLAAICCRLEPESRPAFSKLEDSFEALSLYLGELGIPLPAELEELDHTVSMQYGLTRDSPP
Death-associated protein kinase 1 (Homo sapiens), sequence (P53355 whole entry, looked up): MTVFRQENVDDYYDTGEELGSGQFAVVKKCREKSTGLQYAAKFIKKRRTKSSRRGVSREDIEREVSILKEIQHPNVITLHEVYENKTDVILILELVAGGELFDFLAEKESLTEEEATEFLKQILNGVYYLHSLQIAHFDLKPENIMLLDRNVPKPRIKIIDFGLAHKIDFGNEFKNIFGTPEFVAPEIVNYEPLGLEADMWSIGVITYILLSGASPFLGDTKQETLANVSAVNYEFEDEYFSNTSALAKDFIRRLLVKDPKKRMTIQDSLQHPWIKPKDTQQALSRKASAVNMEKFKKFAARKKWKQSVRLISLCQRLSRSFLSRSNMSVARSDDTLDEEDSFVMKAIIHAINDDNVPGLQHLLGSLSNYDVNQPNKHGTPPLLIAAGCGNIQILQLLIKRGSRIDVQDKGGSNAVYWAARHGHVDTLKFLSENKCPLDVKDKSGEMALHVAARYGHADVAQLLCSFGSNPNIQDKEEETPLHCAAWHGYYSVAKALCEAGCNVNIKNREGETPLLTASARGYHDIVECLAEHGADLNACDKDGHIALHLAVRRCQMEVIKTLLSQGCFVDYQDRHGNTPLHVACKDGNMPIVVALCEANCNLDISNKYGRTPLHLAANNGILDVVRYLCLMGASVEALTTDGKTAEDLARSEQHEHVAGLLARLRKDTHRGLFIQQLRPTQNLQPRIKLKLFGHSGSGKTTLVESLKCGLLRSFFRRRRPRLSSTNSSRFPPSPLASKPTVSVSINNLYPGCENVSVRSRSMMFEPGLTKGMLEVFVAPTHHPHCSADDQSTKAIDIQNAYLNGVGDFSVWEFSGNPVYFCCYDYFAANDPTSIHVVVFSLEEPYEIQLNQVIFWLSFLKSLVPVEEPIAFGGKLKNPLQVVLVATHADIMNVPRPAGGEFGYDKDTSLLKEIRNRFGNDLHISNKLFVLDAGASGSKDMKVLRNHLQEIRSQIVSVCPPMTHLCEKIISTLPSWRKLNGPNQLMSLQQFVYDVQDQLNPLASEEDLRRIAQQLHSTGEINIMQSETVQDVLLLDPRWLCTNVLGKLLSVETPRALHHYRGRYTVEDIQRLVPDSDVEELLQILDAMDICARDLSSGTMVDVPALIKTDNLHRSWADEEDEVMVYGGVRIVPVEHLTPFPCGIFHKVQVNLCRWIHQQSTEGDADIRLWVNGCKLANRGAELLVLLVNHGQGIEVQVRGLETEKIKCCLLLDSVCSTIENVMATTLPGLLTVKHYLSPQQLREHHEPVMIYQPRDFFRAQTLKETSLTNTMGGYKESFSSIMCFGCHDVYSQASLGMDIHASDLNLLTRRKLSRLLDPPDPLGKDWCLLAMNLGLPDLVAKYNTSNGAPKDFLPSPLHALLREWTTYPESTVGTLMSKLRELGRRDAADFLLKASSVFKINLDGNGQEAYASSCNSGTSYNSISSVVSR
Serine/threonine-protein kinase 35 (Homo sapiens), sequence (Q8TDR2 whole entry): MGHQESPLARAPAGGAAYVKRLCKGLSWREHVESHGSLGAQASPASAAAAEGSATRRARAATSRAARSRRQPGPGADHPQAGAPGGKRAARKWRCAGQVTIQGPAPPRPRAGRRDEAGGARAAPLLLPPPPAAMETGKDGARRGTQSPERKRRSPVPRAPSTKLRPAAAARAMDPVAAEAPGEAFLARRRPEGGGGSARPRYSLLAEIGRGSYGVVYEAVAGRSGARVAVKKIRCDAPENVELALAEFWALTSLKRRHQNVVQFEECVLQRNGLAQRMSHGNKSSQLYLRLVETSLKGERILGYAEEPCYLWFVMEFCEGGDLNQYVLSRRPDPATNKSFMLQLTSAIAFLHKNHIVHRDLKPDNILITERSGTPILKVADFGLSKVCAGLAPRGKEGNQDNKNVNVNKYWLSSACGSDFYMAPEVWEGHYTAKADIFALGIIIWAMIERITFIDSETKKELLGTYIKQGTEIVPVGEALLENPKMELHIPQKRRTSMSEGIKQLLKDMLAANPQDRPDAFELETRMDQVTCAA
Cyclin-dependent kinase 4 (Homo sapiens), sequence (P11802 whole entry): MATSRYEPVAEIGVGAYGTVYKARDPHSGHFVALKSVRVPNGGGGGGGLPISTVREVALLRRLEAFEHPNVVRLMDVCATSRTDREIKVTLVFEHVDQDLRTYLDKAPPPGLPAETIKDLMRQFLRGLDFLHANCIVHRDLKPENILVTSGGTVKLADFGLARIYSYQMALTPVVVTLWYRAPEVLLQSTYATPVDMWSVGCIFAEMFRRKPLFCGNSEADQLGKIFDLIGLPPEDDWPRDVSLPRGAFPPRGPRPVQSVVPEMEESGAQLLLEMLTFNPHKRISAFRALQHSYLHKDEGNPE

c1ccc(N2CCN(Cc3nc4ccccc4[nH]3)CC2)nc1 [ABT-724]
inactive: [1] 99% | [2] 100% | [3] 100% | [4] 100% | [5] 100% | [6] 100% | [7] 100% | [8] 100% | [9] 86% | [10] 97% | [11] 100% | [12] 100% | [13] 98% | [14] 100% | [15] 100% | [16] 100% | [17] 100% | [18] 100% | [19] 100% | [20] 100% | [21] 100% | [22] 100% | [23] 100% | [24] 100% | [25] 100% | [26] 100% | [27] 100% | [28] 99% | [29] 100% | [30] 100% | [31] 100% | [32] 100% | [33] 100% | [34] 100% | [35] 100% | [36] 52% | [37] 85% | [38] 80% | [39] 100% | [40] 100% | [41] 100% | [42] 86% | [43] 89% | [44] 100% | [45] 100%

CSc1cccnc1N1CCN(Cc2nc3ccccc3[nH]2)CC1 [A-769]
inactive: [1] 89% | [2] 100% | [3] 100% | [4] 96% | [5] 79% | [6] 100% | [7] 99% | [8] 91% | [9] 81% | [10] 100% | [11] 99% | [12] 86% | [13] 100% | [14] 95% | [15] 77% | [16] 100% | [17] 100% | [18] 100% | [19] 77% | [20] 88% | [21] 100% | [22] 100% | [23] 100% | [24] 100% | [25] 84% | [26] 91% | [27] 87% | [28] 70% | [29] 95% | [30] 100% | [31] 78% | [32] 100% | [33] 84% | [34] 98% | [35] 100% | [36] 74% | [37] 94% | [38] 70% | [39] 74% | [40] 100% | [41] 100% | [42] 100% | [43] 74% | [44] 94% | [45] 100%
